Here are results for one compound from patent US7071188B2 (priority 2001, dated 2006).

One assay deals with Fusarium (FFUSARGRAMI). Nature of the assay: Seed treatment test for field corn and sweet corn, in-furrow Fusarium inoculation (Example 1). Conditions: rates gai/100 kg: Apron XL 3LS 1, Maxim XL 3.5, CGA-301940 2.5, CAPTAN 55 + Allegiance-FL 2. It counts as in vivo, Fusarium on corn variety H-8874RR. From the text: (§1) Seed Treatment Test for Field Corn and Sweet Corn
In assay [1] the test system is natural disease pressure on corn variety N58-D1. Nature of the assay: Seed treatment test for field corn and sweet corn, no inoculation, natural disease pressure (Example 2). It counts as in vivo. Conditions: rates gai/100 kg: Apron XL 3LS 1, Maxim XL 3.5, CGA-301940 2.5, CAPTAN 55 + Allegiance-FL 2.
Source text: as §1

For `CO/C=C(/C(=O)OC)c1ccccc1Oc1cc(Oc2ccccc2C#N)ncn1` [CGA-301940, Azoxystrobin], the “Stand Count percent increase (27 DAP)” value in the assay on Fusarium (FFUSARGRAMI) (27 DAP, vs Check (inoculated)) is reported as −10.3%. Also, the “Stand Count (No Plants/Plot) 27 DAP” value in the assay with Fusarium (FFUSARGRAMI) (27 DAP) is given as 13.0b No Plants/Plot. Moreover, in the assay on Fusarium (FFUSARGRAMI) (47 DAP, vs Check (inoculated)), the “% Vigor percent increase (47 DAP)” value was 6.6% and the “Stand Count percent increase (47 DAP)” value amounted to 9.8%. Moreover, in the assay on Fusarium (FFUSARGRAMI) (47 DAP), the “% Vigor 47 DAP” value came to 80.0a % and the “Stand Count (No Plants/Plot) 47 DAP” value turned out to be 42.3d No Plants/Plot. Moreover, in assay [1] (33 DAP, vs Check (non-inoculated)), the “Stand Count percent increase (33 DAP)” value was determined as 4.5%. Further, the “Stand Count (No Plants/Plot) 33 DAP” value in assay [1] (33 DAP) is 46.5c No Plants/Plot. For the same compound, the “Stand Count percent increase (49 DAP)” value in assay [1] (49 DAP, vs Check (non-inoculated)) came to 6.0%. In addition, the “Stand Count (No Plants/Plot) 49 DAP” value in assay [1] (49 DAP) was 52.8c No Plants/Plot.
